Results: patent publication US20150297609A1, “STERILE OPHTHALMIC PHARMACEUTICAL SUSPENSIONS” (SENTISS PHARMA PVT. LTD., priority 2012, published 2015)

Experiment: Particle size analysis of brinzolamide precipitated after autoclaving
Assay type: physicochemical
Details: precipitated during cooling after autoclaving, before size reduction
From the text: The precipitated brinzolamide is preferably in partially amorphous or crystalline form, preferably in crystalline form, more preferably in highly crystalline form. The particles are preferably in the form of fine particles. More preferably the fine particulate has an average particle size of less than 100 μm, more preferably less than 50 μm. The particle size can be reduced further by sonication to an average particle size less than […], more preferably less than 30 pm or 20 pm. Any method can be used to determine particle size distribution. One preferred method is to use a light scattering or Coulter counter method. It is preferred that 90% of the particles (D(0.9)) be less than 15 pm, more preferably, D(0.9) is in the range of 10-15 pm. It is preferred that 100% of the particles (D(1)) be less than 30 pm, more preferably less than about 20 pm.
During autoclaving due to high temperature and pressure, brinzolamide goes in solution. Upon completion of the autoclave cycle, during cooling, brinzolamide starts precipitating out. Brinzolamide forms needle shaped crystals of 1000 to 3000 microns. These needle shaped crystals of brinzolamide are further reduced in fine crystalline form to be used in the present invention formulation and the reduced particle size is as per table 3.
This particle size is further reduced to […] through rapid cooling with stirring. […]

size of needle shaped crystals: 1000 to 3000 microns
Structure (SMILES): CCN[C@H]1CN(CCCOC)S(=O)(=O)c2sc(S(N)(=O)=O)cc21 [API, (R)-(+)-4-ethylamino-2-(3-methoxypropyl)-3,4-dihydro-2H-thieno[3,2-e]-1,2-thiazine-6-sulfonamide-1,1-dioxide]
